# Assay results published in patent US10351575B2, “Bicyclic urea, thiourea, guanidine and cyanoguanidine compounds useful for the treatment of pain” (Array BioPharma Inc., priority 2012, dated 2019).
# Assays:
# Assay in all cases: KinaseProfiler off-target kinase profiling
# Assay type in all cases: biochemical
# Details in all cases: 10 μM, ATP near Km
# STK33 = STK33 (Homo sapiens (Human), UniProt Q9BYT3)
# Protocol: (§1) Representative compounds (Examples 12, 32, 26 and 2) of the invention were tested for off-target kinase activity at a concentration of 10 μM by Millipore, Inc. in their KinaseProfiler™ service against all the kinases available in their full kinase panel. Compounds were run in duplicate at a concentration of ATP near the Km for each individual kinase according to Millipore's specifications. The results are shown in Table B. Data are reported as percent of control (POC) and are the average of the two replicates.
# p38delta = p38delta (Homo sapiens (Human), UniProt O15264)
# p38delta, sequence (O15264 whole entry): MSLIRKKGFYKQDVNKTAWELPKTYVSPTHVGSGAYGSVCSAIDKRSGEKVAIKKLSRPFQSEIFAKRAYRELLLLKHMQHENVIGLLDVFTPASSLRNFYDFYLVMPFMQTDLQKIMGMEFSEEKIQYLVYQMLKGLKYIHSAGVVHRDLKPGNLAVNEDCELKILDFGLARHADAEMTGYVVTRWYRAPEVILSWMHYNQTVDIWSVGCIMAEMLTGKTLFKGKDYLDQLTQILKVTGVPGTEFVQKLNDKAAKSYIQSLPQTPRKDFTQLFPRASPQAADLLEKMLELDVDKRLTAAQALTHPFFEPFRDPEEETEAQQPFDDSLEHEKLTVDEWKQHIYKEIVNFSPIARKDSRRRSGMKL
# Protocol: as §1
# PKCtheta = PKCtheta (Homo sapiens (Human), UniProt Q04759)
# PKCtheta, sequence (Q04759 whole entry): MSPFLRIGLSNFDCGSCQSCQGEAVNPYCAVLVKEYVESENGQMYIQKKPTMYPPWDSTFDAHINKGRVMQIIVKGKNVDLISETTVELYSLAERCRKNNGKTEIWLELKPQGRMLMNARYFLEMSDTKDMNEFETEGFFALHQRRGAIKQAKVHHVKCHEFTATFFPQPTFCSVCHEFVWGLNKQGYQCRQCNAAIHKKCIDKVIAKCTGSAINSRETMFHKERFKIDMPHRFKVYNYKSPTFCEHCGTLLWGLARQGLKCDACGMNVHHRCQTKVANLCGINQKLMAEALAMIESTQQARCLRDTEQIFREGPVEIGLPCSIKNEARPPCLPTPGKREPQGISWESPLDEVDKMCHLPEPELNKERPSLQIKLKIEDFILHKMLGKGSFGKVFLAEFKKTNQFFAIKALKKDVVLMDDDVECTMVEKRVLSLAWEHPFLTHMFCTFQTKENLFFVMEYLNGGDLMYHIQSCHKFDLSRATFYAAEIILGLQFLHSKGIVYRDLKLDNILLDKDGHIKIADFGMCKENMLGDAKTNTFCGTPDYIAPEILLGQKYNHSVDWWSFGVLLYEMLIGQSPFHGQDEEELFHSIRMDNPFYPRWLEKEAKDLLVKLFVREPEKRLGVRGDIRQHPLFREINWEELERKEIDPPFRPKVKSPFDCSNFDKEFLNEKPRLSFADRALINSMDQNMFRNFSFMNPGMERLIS
# Protocol: as §1
# LKB1 = LKB1 (Homo sapiens (Human), UniProt Q15831)
# Protocol: as §1
# FAK2 = FAK2 (Homo sapiens (Human), UniProt Q14289)
# Protocol: as §1
# CDK2/cyclinE = CDK2/cyclinE (Homo sapiens (Human), UniProt P24941)
# Protocol: as §1
# PASK = PASK (Homo sapiens (Human), UniProt Q96RG2)
# Protocol: as §1
# PDGFRalpha = PDGFRalpha (Homo sapiens (Human), UniProt P16234)
# Protocol: as §1
# WNK2 = WNK2 (Homo sapiens (Human), UniProt Q9Y3S1)
# WNK2, sequence (Q9Y3S1 whole entry): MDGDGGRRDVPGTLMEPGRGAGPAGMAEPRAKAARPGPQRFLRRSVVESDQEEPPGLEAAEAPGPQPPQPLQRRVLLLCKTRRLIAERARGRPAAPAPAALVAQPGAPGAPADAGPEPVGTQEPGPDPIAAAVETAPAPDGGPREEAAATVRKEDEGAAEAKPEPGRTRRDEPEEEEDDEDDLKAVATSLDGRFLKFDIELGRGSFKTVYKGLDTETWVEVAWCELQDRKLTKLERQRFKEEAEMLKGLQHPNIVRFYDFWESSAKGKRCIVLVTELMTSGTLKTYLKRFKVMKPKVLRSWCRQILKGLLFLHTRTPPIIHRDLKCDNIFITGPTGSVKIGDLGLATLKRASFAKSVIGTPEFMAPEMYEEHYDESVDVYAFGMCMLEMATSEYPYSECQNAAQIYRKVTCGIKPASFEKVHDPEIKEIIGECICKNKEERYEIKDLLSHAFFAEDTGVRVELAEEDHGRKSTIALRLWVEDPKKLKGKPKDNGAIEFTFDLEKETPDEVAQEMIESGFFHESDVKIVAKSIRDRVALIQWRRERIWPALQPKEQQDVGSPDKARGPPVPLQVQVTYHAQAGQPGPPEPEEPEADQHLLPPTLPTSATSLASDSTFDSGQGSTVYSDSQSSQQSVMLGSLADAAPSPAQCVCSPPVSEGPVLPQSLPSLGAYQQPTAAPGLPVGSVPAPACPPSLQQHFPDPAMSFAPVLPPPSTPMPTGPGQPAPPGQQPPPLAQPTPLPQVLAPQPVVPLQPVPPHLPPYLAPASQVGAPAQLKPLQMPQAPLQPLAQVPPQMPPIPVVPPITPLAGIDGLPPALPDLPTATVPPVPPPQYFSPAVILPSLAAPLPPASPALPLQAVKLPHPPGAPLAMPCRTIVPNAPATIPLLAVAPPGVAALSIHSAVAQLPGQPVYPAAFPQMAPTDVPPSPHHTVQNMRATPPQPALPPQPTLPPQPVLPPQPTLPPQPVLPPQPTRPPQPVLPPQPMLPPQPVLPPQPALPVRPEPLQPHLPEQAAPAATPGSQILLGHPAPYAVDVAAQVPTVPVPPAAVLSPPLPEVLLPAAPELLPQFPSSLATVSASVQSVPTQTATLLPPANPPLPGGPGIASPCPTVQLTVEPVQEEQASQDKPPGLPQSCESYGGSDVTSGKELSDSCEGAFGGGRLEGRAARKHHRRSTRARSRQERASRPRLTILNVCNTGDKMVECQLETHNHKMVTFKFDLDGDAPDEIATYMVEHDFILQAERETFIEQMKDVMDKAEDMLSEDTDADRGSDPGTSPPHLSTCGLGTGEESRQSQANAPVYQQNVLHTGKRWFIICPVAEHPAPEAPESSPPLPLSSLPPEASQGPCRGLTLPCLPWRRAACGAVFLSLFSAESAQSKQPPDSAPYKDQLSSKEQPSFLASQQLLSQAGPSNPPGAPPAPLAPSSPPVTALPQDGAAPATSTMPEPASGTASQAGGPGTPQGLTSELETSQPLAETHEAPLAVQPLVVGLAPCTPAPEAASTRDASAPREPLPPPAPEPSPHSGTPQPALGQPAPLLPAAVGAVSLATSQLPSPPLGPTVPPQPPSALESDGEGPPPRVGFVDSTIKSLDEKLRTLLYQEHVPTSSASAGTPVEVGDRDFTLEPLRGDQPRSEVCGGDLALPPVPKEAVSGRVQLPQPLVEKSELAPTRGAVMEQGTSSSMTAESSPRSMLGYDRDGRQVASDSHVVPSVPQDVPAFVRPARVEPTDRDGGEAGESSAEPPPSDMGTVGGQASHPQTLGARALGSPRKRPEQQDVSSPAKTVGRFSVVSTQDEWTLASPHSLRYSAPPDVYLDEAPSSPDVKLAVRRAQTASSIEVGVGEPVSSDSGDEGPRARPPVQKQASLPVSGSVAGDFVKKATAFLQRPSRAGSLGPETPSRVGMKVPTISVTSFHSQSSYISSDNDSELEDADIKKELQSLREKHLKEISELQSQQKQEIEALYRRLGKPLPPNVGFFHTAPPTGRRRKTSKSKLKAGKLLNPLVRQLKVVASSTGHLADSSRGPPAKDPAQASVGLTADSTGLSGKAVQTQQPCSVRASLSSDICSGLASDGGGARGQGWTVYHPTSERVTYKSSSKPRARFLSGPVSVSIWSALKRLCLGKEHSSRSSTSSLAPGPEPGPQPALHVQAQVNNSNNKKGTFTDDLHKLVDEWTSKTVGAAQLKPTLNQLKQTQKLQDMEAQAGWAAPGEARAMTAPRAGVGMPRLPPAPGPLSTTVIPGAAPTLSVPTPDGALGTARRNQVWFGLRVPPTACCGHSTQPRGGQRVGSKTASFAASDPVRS
# Protocol: as §1
# PhKgamma2 = PhKgamma2 (Homo sapiens (Human), UniProt P15735)
# Protocol: as §1
# PKCbetaI = PKCbetaI (Homo sapiens (Human), UniProt P05771)
# Protocol: as §1
# FGFR3 = FGFR3 (Homo sapiens (Human), UniProt P22607)
# Protocol: as §1
# CDK5/p35 = CDK5/p35 (Homo sapiens (Human), UniProt Q00535)
# Protocol: as §1
# CHK1 = CHK1 (Homo sapiens (Human), UniProt O14757)
# Protocol: as §1
# MAP3K5 = MAP3K5 (Homo sapiens (Human), UniProt Q99683)
# Protocol: as §1
# Rse = Rse (Homo sapiens (Human), UniProt Q06418)
# Protocol: as §1
# PDGFRbeta = PDGFRbeta (Homo sapiens (Human), UniProt P09619)
# PDGFRbeta, sequence (P09619 33-1106): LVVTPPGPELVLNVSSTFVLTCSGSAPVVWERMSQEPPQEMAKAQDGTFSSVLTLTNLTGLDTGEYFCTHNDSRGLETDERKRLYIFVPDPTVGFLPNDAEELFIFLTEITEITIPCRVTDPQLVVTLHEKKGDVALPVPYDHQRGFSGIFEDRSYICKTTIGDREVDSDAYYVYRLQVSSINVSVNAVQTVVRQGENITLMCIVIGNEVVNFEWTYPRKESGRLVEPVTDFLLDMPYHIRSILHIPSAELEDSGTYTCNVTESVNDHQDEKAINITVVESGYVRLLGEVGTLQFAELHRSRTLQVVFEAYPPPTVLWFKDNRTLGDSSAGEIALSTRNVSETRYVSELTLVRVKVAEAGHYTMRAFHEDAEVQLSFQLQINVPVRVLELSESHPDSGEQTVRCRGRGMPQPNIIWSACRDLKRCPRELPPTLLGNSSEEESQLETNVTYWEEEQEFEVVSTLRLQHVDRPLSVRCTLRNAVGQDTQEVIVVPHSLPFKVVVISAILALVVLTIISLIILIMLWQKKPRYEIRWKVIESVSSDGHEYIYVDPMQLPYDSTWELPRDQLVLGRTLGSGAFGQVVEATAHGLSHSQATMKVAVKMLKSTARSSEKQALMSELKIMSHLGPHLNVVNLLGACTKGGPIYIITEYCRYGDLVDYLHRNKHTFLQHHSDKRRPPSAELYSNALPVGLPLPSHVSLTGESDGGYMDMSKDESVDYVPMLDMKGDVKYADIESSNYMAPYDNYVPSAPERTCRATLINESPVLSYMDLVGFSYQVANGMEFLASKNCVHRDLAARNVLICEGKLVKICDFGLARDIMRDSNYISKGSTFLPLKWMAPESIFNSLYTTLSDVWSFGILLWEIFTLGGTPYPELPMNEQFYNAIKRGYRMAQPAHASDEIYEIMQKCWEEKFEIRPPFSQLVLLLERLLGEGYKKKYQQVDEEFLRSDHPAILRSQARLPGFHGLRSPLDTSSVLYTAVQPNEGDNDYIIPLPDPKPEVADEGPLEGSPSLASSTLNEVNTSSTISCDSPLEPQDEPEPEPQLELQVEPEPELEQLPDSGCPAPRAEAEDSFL
# Protocol: as §1
# Mer = Mer (Homo sapiens (Human), UniProt Q12866)
# Protocol: as §1
# GRK7 = GRK7 (Homo sapiens (Human), UniProt Q8WTQ7)
# Protocol: as §1
# MAP4K2 = MAP4K2 (Homo sapiens (Human), UniProt Q12851)
# Protocol: as §1
# IKKbeta = IKKbeta (Homo sapiens (Human), UniProt O14920)
# Protocol: as §1
# AKT3 = AKT3 (Homo sapiens (Human), UniProt Q9Y243)
# Protocol: as §1
# PKD1 = PKD1 (Homo sapiens (Human), UniProt Q15139)
# Protocol: as §1
# Flt4 = Flt4 (Homo sapiens (Human), UniProt P35916)
# Protocol: as §1
# EphA5 = EphA5 (Homo sapiens (Human), UniProt P54756)
# Protocol: as §1
# CAMK1d = CAMK1d (Homo sapiens (Human), UniProt Q8IU85)
# CAMK1d, sequence (Q8IU85 whole entry): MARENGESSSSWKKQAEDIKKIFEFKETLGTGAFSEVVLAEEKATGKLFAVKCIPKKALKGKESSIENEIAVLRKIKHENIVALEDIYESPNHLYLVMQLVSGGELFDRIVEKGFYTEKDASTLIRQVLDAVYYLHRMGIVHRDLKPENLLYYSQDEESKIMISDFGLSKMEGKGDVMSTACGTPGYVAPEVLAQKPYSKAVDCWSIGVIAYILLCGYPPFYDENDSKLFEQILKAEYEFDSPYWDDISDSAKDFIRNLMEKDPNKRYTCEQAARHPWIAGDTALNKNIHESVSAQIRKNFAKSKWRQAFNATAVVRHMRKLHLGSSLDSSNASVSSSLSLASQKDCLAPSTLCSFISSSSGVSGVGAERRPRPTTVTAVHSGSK
# Protocol: as §1
# NEK7 = NEK7 (Homo sapiens (Human), UniProt Q8TDX7)
# Protocol: as §1
# IRR = IRR (Homo sapiens (Human), UniProt P14616)
# Protocol: as §1
# CK1gamma1 = CK1gamma1 (Homo sapiens (Human), UniProt Q9HCP0)
# Protocol: as §1
# ZAP-70 = ZAP-70 (Homo sapiens (Human), UniProt P43403)
# Protocol: as §1
# Met = Met (Homo sapiens (Human), UniProt P08581)
# Protocol: as §1
# CSK = CSK (Homo sapiens (Human), UniProt P41240)
# Protocol: as §1
# ALK4 = ALK4 (Homo sapiens (Human), UniProt P36896)
# Protocol: as §1
# CDK9/cyclinT1 = CDK9/cyclinT1 (Homo sapiens (Human), UniProt P50750)
# Protocol: as §1
# CLK2 = CLK2 (Homo sapiens (Human), UniProt P49760)
# Protocol: as §1
# RIPK2 = RIPK2 (Homo sapiens (Human), UniProt O43353)
# Protocol: as §1
# JAK3 = JAK3 (Homo sapiens (Human), UniProt P52333)
# Protocol: as §1
# ITK = ITK (Homo sapiens (Human), UniProt Q08881)
# Protocol: as §1
# JNK1alpha1 = JNK1alpha1 (Homo sapiens (Human), UniProt P45983)
# Protocol: as §1
Structure (SMILES),Avg. POC (STK33) [POC],Avg. POC (p38delta) [POC],Avg. POC (PKCtheta) [POC],Avg. POC (LKB1) [POC],Avg. POC (FAK2) [POC],Avg. POC (CDK2/cyclinE) [POC],Avg. POC (PASK) [POC],Avg. POC (PDGFRalpha) [POC],Avg. POC (WNK2) [POC],Avg. POC (PhKgamma2) [POC],Avg. POC (PKCbetaI) [POC],Avg. POC (FGFR3) [POC],Avg. POC (CDK5/p35) [POC],Avg. POC (CHK1) [POC],Avg. POC (MAP3K5) [POC],Avg. POC (Rse) [POC],Avg. POC (PDGFRbeta) [POC],Avg. POC (Mer) [POC],Avg. POC (GRK7) [POC],Avg. POC (MAP4K2) [POC],further results
"Cc1c(-c2cnn(C)c2)nn(-c2ccccc2)c1NC(=O)N[C@H]1CCCc2ccccc21 [Example 2, (S)-1-(1′,4-dimethyl-1-phenyl-1H,1′H-3,4′-bipyrazol-5-yl)-3-(1,2,3,4-tetrahydronaphthalen-1-yl)urea]",110.5,96.5,101,103.5,120,116.5,143,123,99,113,99,113.5,124,106.5,105,109,149,109.5,108.5,110,Avg. POC (IKKbeta): 116 POC; Avg. POC (AKT3): 116.5 POC; Avg. POC (PKD1): 110.5 POC; Avg. POC (Flt4): 99 POC; Avg. POC (EphA5): 119 POC; Avg. POC (CAMK1d): 127 POC; Avg. POC (NEK7): 94.5 POC; Avg. POC (IRR): 2.5 POC; Avg. POC (CK1gamma1): 116.5 POC; Avg. POC (ZAP-70): 124 POC; Avg. POC (Met): 148.5 POC; Avg. POC (CSK): 124 POC; Avg. POC (ALK4): 98.5 POC; Avg. POC (CDK9/cyclinT1): 127 POC; Avg. POC (CLK2): 115.5 POC; Avg. POC (RIPK2): 108 POC; Avg. POC (JAK3): 142.5 POC; Avg. POC (ITK): 117.5 POC; Avg. POC (JNK1alpha1): 94 POC
"Cc1c(-c2cnn(C)c2)nn(-c2ccccc2)c1NC(=O)NC1CCOc2cc(F)ccc21 (stereo not drawn) [Example 12, 1-(1′,4-dimethyl-1-phenyl-1H,1′H-[3,4′-bipyrazol]-5-yl)-3-(7-fluorochroman-4-yl)urea]",106.5,99.5,117.5,91,111,96.5,125.5,104.5,106.5,110,93.5,109,106.5,99.5,111,106,125.5,98,117,107.5,Avg. POC (IKKbeta): 102 POC; Avg. POC (AKT3): 94 POC; Avg. POC (PKD1): 115 POC; Avg. POC (Flt4): 83.5 POC; Avg. POC (EphA5): 118.5 POC; Avg. POC (CAMK1d): 137 POC; Avg. POC (NEK7): 133.5 POC; Avg. POC (IRR): 91 POC; Avg. POC (CK1gamma1): 98.5 POC; Avg. POC (ZAP-70): 140 POC; Avg. POC (Met): 109 POC; Avg. POC (CSK): 131.5 POC; Avg. POC (ALK4): 101 POC; Avg. POC (CDK9/cyclinT1): 106 POC; Avg. POC (CLK2): 100 POC; Avg. POC (RIPK2): 99 POC; Avg. POC (JAK3): 112 POC; Avg. POC (ITK): 114.5 POC; Avg. POC (JNK1alpha1): 109.5 POC
"Cc1c(-c2ccc(=O)n(C)c2)nn(-c2ccccc2)c1NC(=O)NC1CN(CC(F)(F)F)Cc2ccccc21 (stereo not drawn) [Example 26, 1-(4-methyl-3-(1-methyl-6-oxo-1,6-dihydropyridin-3-yl)-1-phenyl-1H-pyrazol-5-yl)-3-(2-(2,2,2-trifluoroethyl)-1,2,3,4-tetrahydroisoquinolin-4-yl)urea]",111,102,109,95,104.5,97.5,124.5,104.5,108,108.5,89,101,110.5,70.5,116.5,109.5,122.5,98,118,121,Avg. POC (IKKbeta): 103.5 POC; Avg. POC (AKT3): 96 POC; Avg. POC (PKD1): 113.5 POC; Avg. POC (Flt4): 106 POC; Avg. POC (EphA5): 106.5 POC; Avg. POC (CAMK1d): 97 POC; Avg. POC (NEK7): 126 POC; Avg. POC (IRR): 89 POC; Avg. POC (CK1gamma1): 106.5 POC; Avg. POC (ZAP-70): 120.5 POC; Avg. POC (Met): 81 POC; Avg. POC (CSK): 118.5 POC; Avg. POC (ALK4): 102.5 POC; Avg. POC (CDK9/cyclinT1): 112.5 POC; Avg. POC (CLK2): 108.5 POC; Avg. POC (RIPK2): 98 POC; Avg. POC (JAK3): 112 POC; Avg. POC (ITK): 122 POC; Avg. POC (JNK1alpha1): 112 POC
